# In DBAASP:
# Experiments:
# Test in all cases: ≥ marks a high value that may be exact or a test limit, other limits are often not marked, values filed in µg/mL are converted to µM
# [1] = test system: Corynebacterium glutamicum ATCC 13032
# [2] = test system: Staphylococcus aureus ATCC 9144
# [3] = test system: Pseudomonas aeruginosa ATCC 27853
# [4] = test system: Escherichia coli ATCC 25922
# [5] = test system: Escherichia coli NEB5alpha
# [6] = test system: Bacillus subtilis ATCC 6051
# [7] = test system: Bacillus subtilis
# [8] = test system: Escherichia coli
# [9] = test system: Serratia marcescens
# [10] = test system: Shigella dysenteriae
# [11] = test system: Salmonella typhimurium
# [12] = test system: Saccharomyces cerevisiae
# [13] = test system: Pseudomonas aeruginosa
# [14] = test system: Staphylococcus epidermidis
# [15] = test system: Micrococcus luteus
# [16] = test system: Proteus mirabilis
# [17] = test system: Candida albicans
# [18] = test system: Staphylococcus aureus ATCC 33591
# [19] = test system: Staphylococcus epidermidis ATCC 35984
# [20] = test system: Staphylococcus aureus ATCC 25923
# [21] = test system: Escherichia coli HB101
# [22] = test system: Enterococcus faecalis ATCC 29212
# [23] = test system: Escherichia coli 078
# [24] = test system: Bacillus subtilis CMCC 63501
# [25] = test system: Salmonella enterica subsp. enterica serovar Typhimurium ATCC 14028
# [26] = test system: Escherichia coli UB1005
# [27] = test system: Staphylococcus epidermidis ATCC 12228
# [28] = test system: Staphylococcus aureus ATCC 29213
# [29] = test system: Escherichia coli K99
# [30] = test system: Escherichia coli K88
# [31] = test system: Salmonella enterica subsp. enterica serovar Pullorum C79-13
# [32] = test system: Salmonella enterica subsp. enterica serovar Typhimurium C77-31
# [33] = test system: Escherichia coli ML-35p
# [34] = test system: Pseudomonas aeruginosa PAO1
# [35] = test system: Staphylococcus aureus
# [36] = test system: Enterobacter cloacae
# [37] = test system: Klebsiella aerogenes
# [38] = test system: Escherichia coli 1
compound,measurement,setting,value
CC(C)[C@H](NC(=O)[C@H](CCCCN)NC(=O)[C@H](C)NC(=O)[C@@H](NC(=O)[C@@H](NC(=O)[C@H](CCCN=C(N)N)NC(=O)[C@H](CCCN=C(N)N)NC(=O)[C@H](Cc1c[nH]c2ccccc12)NC(=O)[C@H](Cc1c[nH]c2ccccc12)NC(=O)CN)[C@@H](C)O)C(C)C)C(=O)N[C@@H](CCCN=C(N)N)C(=O)N[C@@H](CC(N)=O)C(=O)N[C@@H](C)C(=O)NCC(=O)N[C@@H](CCCN=C(N)N)C(=O)N[C@@H](CCCCN)C(N)=O [GWWRRTVAKVRNAGRK],MIC,[1],0.8 µM
same,MIC,[2],12.5 µM
same,MIC,[3],3.1 µM
same,MIC,[4],3.1 µM
CC[C@H](C)[C@H](NC(=O)[C@H](C)NC(=O)CNC(=O)[C@H](CCCCN)NC(=O)[C@H](CCC(=O)O)NC(=O)[C@H](CCC(=O)O)NC(=O)[C@H](CC(=O)O)NC(=O)[C@H](CCC(=O)O)NC(=O)[C@H](CC(=O)O)NC(=O)[C@H](CCCN=C(N)N)NC(=O)CNC(=O)[C@H](CCC(N)=O)NC(=O)[C@H](CC(C)C)NC(=O)[C@H](CCCCN)NC(=O)[C@H](CC(=O)O)NC(=O)[C@@H](NC(=O)[C@@H](NC(=O)[C@H](Cc1cnc[nH]1)NC(=O)[C@@H](N)CCCN=C(N)N)[C@@H](C)CC)C(C)C)C(=O)N[C@H](C(=O)N[C@@H](CCCCN)C(=O)N[C@H](C(=O)N[C@@H](CCCCN)C(=O)NCC(=O)NCC(=O)N[C@@H](CC(C)C)C(=O)O)C(C)C)C(C)C [RHIVDKLQGRDEDEEKGAIVKVKGGL],MIC,[5],≥ 500 µM
same,MIC,[6],≥ 500 µM
CC[C@H](C)[C@H](NC(=O)CN)C(=O)N[C@@H](CC(C)C)C(=O)N[C@@H](CC(=O)O)C(=O)N[C@H](C(=O)N[C@@H](CC(C)C)C(=O)N[C@@H](CCCCN)C(=O)N[C@@H](CCC(N)=O)C(=O)N[C@@H](Cc1ccccc1)C(=O)N[C@@H](C)C(=O)N[C@@H](CCCCN)C(=O)NCC(=O)N[C@H](C(=O)NCC(=O)N[C@@H](CCCCN)C(=O)N[C@@H](CC(=O)O)C(=O)N[C@@H](CC(C)C)C(=O)N[C@H](C(=O)N[C@@H](CCCCN)C(=O)NCC(=O)N[C@@H](C)C(=O)N[C@@H](C)C(=O)N[C@@H](CCC(N)=O)C(=O)NCC(=O)O)C(C)C)C(C)C)[C@@H](C)O [GILDTLKQFAKGVGKDLVKGAAQG],MIC,[7],≥ 41.4 µM
same,MIC,[8],20.7 µM
same,MIC,[9],≥ 41.4 µM
same,MIC,[10],20.7 µM
same,MIC,[11],≥ 41.4 µM
same,MIC,[12],20.7 µM
same,MIC,[13],20.7 µM
same,MIC,[14],31.1 µM
same,MIC,[15],2.07 µM
same,MIC,[16],20.7 µM
same,MIC,[17],> 41.4 µM
CC[C@H](C)[C@H](N)C(=O)NCC(=O)N[C@@H](CCCCN)C(=O)N[C@@H](Cc1ccccc1)C(=O)N[C@@H](CC(C)C)C(=O)N[C@@H](CCCCN)C(=O)N[C@@H](CCCCN)C(=O)N[C@@H](C)C(=O)N[C@@H](CCCCN)C(=O)N[C@@H](CCCCN)C(=O)N[C@@H](Cc1ccccc1)C(=O)NCC(N)=O [IGKFLKKAKKFG],MIC,[18],≥ 375 µM
same,MIC,[19],≥ 188 µM
same,MIC,[3],133 µM
same,MIC,[20],> 375 µM
CC[C@H](C)[C@H](N)C(=O)N[C@H](C(=O)N[C@@H](CC(C)C)C(=O)N[C@@H](CC(N)=O)C(=O)N1CCC[C@H]1C(=O)N[C@@H](Cc1c[nH]c2ccccc12)C(=O)N[C@@H](CC(=O)O)C(=O)N[C@@H](CCC(N)=O)C(=O)N[C@H](C(=O)N[C@@H](CCCCN)C(=O)O)C(C)C)C(C)C [IVLNPWDQVK],MIC,[5],≥ 681 µM
same,MIC,[4],1360 µM
same,MIC,[6],≥ 1360 µM
NC(N)=NCCC[C@H](NC(=O)[C@@H](N)CO)C(=O)N[C@@H](Cc1c[nH]c2ccccc12)C(=O)N1CCC[C@H]1C(=O)N[C@@H](CO)C(=O)N1CCC[C@H]1C(=O)NCC(=O)N[C@@H](CCCN=C(N)N)C(=O)N1CCC[C@H]1C(=O)N[C@@H](CCCN=C(N)N)C(=O)N1CCC[C@H]1C(=O)N[C@@H](Cc1ccccc1)C(=O)N1CCC[C@H]1C(=O)NCC(=O)O [SRWPSPGRPRPFPG],MIC,[1],≥ 100 µM
same,MIC,[2],≥ 100 µM
same,MIC,[3],> 100 µM
same,MIC,[4],> 100 µM
same,MIC,[21],≥ 100 µM
CC[C@H](C)[C@H](NC(=O)[C@H](Cc1c[nH]c2ccccc12)NC(=O)[C@H](CCCCN)NC(=O)[C@H](Cc1c[nH]c2ccccc12)NC(=O)[C@@H](NC(=O)[C@H](CCCCN)NC(=O)CNC(=O)[C@@H](NC(=O)[C@H](CCCCN)NC(=O)[C@H](CCCCN)NC(=O)[C@H](Cc1c[nH]c2ccccc12)NC(=O)[C@@H](N)CCCN=C(N)N)[C@@H](C)CC)C(C)C)C(N)=O [RWKKIGKVWKWI],MIC,[22],32 µM
same,MIC,[23],8 µM
same,MIC,[24],8 µM
same,MIC,[25],32 µM
same,MIC,[26],8 µM
same,MIC,[27],64 µM
same,MIC,[28],32 µM
same,MIC,[29],4 µM
same,MIC,[4],8 µM
same,MIC,[30],2 µM
same,MIC,[20],32 µM
same,MIC,[31],2 µM
same,MIC,[32],≥ 32 µM
CC(C)C[C@H](NC(=O)[C@H](CCCCN)NC(=O)[C@H](CCCCN)NC(=O)[C@H](Cc1ccccc1)NC(=O)[C@H](Cc1ccccc1)NC(=O)[C@H](CCCCN)NC(=O)[C@H](CCCCN)NC(=O)[C@@H](N)Cc1ccccc1)C(=O)N[C@@H](CCCCN)C(=O)N[C@@H](CC(N)=O)C(=O)N[C@@H](CO)C(=O)N[C@H](C(=O)N[C@@H](CCCCN)C(=O)N[C@@H](CCCCN)C(=O)N[C@@H](CCCN=C(N)N)C(=O)O)C(C)C [FKKFFKKLKNSVKKR],MIC,[33],2.6 µM
same,MIC,[8],6.23 µM
same,MIC,[34],3.63 µM
same,MIC,[35],3.63 µM
same,MIC,[36],4.15 µM
same,MIC,[37],8.82 µM
same,MIC,[3],4.15 µM
same,MIC,[13],3.63 µM
same,MIC,[4],6.75 µM
same,MIC,[20],21.3 µM
same,MIC,[38],2.6 µM
NC(=O)[C@@H]1CCCN1C(=O)[C@H](CCCN=C(N)N)NC(=O)[C@H](CS)NC(=O)[C@H](Cc1ccccc1)NC(=O)[C@H](CCCN=C(N)N)NC(=O)[C@H](CCCN=C(N)N)NC(=O)[C@H](CCCN=C(N)N)NC(=O)[C@H](CS)NC(=O)[C@H](CCCN=C(N)N)NC(=O)[C@@H]1CCCN1 [PRCRRRFCRP],MIC,[22],> 128 µM
same,MIC,[24],16 µM
same,MIC,[27],> 128 µM
same,MIC,[28],> 128 µM
same,MIC,[3],> 128 µM
same,MIC,[4],16 µM
same,MIC,[31],≥ 128 µM
same,MIC,[32],≥ 128 µM
CC(C)C[C@H](N)C(=O)N[C@@H](CCCCN)C(=O)N[C@@H](CCCCN)C(=O)N[C@@H](C)C(=O)N[C@@H](CCCCN)C(=O)N[C@@H](CCCCN)C(=O)N[C@@H](Cc1ccccc1)C(=O)NCC(=O)N[C@@H](CCCCN)C(=O)N[C@@H](C)C(=O)N[C@@H](Cc1ccccc1)C(=O)N[C@H](C(N)=O)C(C)C [LKKAKKFGKAFV],MIC,[18],≥ 375 µM
same,MIC,[19],≥ 375 µM
same,MIC,[3],265 µM
same,MIC,[20],> 375 µM
